Source: PubChem BioAssay AID330 (DTP/NCI, 2004)
Where “and” joins values, the source holds several entries; their conditions need not be identical. Equal entries are not always repeated. Inconclusive results and toxic doses are left out.

Tested on: P388 leukemia ip, CD2F1 mice, survival T/C
Assay: NCI In Vivo Anticancer Drug Screen. Data for tumor model P388 Leukemia (intraperitoneal) in CD2F1 (CDF1) mice
Conditions: endpoint: median survival time, higher = longer survival
Summary of the method: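 Mice carrying the transplanted tumor received test compound or vehicle. Survival was recorded in each group, and the value is the treated-group measurement divided by that of the vehicle-treated control group.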

[1] = dose: 12.5 mg/kg/injection, schedule: Q01DX005 (ip), vehicle: saline with Tween-80
[2] = dose: 25.0 mg/kg/injection, schedule: Q01DX005 (ip), vehicle: saline with Tween-80
[3] = dose: 50.0 mg/kg/injection, schedule: Q01DX005 (ip), vehicle: saline with Tween-80
[4] = dose: 12.5 mg/kg/injection, schedule: Q01DX009 (ip), vehicle: saline with Tween-80
[5] = dose: 25.0 mg/kg/injection, schedule: Q01DX009 (ip), vehicle: saline with Tween-80
[6] = dose: 200.0 mg/kg/injection, schedule: Q01DX009 (ip), vehicle: saline with Tween-80
[7] = dose: 50.0 mg/kg/injection, schedule: Q01DX005 (ip), vehicle: Klucel (hydroxypropylcellulose) (HPC)
[8] = dose: 100.0 mg/kg/injection, schedule: Q01DX005 (ip), vehicle: Klucel (hydroxypropylcellulose) (HPC)
[9] = dose: 200.0 mg/kg/injection, schedule: Q01DX005 (ip), vehicle: Klucel (hydroxypropylcellulose) (HPC)
[10] = dose: 50.0 mg/kg/injection, schedule: Q01DX009 (ip), vehicle: saline with Tween-80
[11] = dose: 100.0 mg/kg/injection, schedule: Q01DX009 (ip), vehicle: saline with Tween-80
[12] = dose: 12.5 mg/kg/injection, schedule: Q01DX009 (ip), vehicle: saline
[13] = dose: 25.0 mg/kg/injection, schedule: Q01DX009 (ip), vehicle: saline
[14] = dose: 50.0 mg/kg/injection, schedule: Q01DX009 (ip), vehicle: saline
[15] = dose: 50.0 mg/kg/injection, schedule: Q01DX009 (ip), vehicle: Klucel (hydroxypropylcellulose) (HPC)
[16] = dose: 100.0 mg/kg/injection, schedule: Q01DX009 (ip), vehicle: Klucel (hydroxypropylcellulose) (HPC)
[17] = dose: 100.0 mg/kg/injection, schedule: Q01DX005 (ip), vehicle: saline with Tween-80
[18] = dose: 200.0 mg/kg/injection, schedule: Q01DX005 (ip), vehicle: saline with Tween-80
[19] = dose: 100.0 mg/kg/injection, schedule: Q01DX009 (ip), vehicle: saline

## Cc1cccc(C(=O)OCCBr)c1
dose: 18.75 mg/kg/injection, schedule: Q01DX009 (ip), vehicle: saline sonified
  T/C: 104 % of control
dose: 37.5 mg/kg/injection, schedule: Q01DX009 (ip), vehicle: saline sonified
  T/C: 109 % of control
dose: 49.5 mg/kg/injection, schedule: Q01DX009 (ip), vehicle: saline sonified
  T/C: 109 % of control
dose: 75.0 mg/kg/injection, schedule: Q01DX009 (ip), vehicle: saline sonified
  T/C: 104 % of control
dose: 112.5 mg/kg/injection, schedule: Q01DX009 (ip), vehicle: saline sonified
  T/C: 104 % of control

## c1ccc2c3c(ccc2c1)-c1ccc2ccccc2c1OP1(=NP(N2CC2)(N2CC2)=NP(N2CC2)(N2CC2)=N1)O3
dose: 100.0 mg/kg/injection, schedule: Q04DX002 (ip), vehicle: Klucel (hydroxypropylcellulose) (HPC)
  T/C: 100 % of control
dose: 200.0 mg/kg/injection, schedule: Q04DX002 (ip), vehicle: Klucel (hydroxypropylcellulose) (HPC)
  T/C: 99 % of control
dose: 400.0 mg/kg/injection, schedule: Q04DX002 (ip), vehicle: Klucel (hydroxypropylcellulose) (HPC)
  T/C: 103 % of control

## CC(C)(C)OC(=O)NNS(=O)(=O)CCC(N)C(=O)O (centres undefined)
dose: 12.5 mg/kg/injection, schedule: Q01DX009 (ip), vehicle: other
  T/C: 106 % of control
dose: 25.0 mg/kg/injection, schedule: Q01DX009 (ip), vehicle: other
  T/C: 106 % of control
dose: 50.0 mg/kg/injection, schedule: Q01DX009 (ip), vehicle: other
  T/C: 97 % of control
dose: 100.0 mg/kg/injection, schedule: Q01DX009 (ip), vehicle: other
  T/C: 97 % of control
dose: 200.0 mg/kg/injection, schedule: Q01DX009 (ip), vehicle: other
  T/C: 100 % of control

## CC(C)c1nnc2cc3oc4ccccc4c3cc2c1N
dose: 6.25 mg/kg/injection, schedule: Q01DX005 (ip), vehicle: saline with Tween-80
  T/C: 100 % of control
[1]
  T/C: 96 % of control
[2]
  T/C: 106 % of control
[3]
  T/C: 106 % of control

## N#C/C(=C1/NC(=O)c2ccccc21)c1nc2ccccc2n1CCO
dose: 6.25 mg/kg/injection, schedule: Q01DX009 (ip), vehicle: saline with Tween-80
  T/C: 91 % of control
[4]
  T/C: 92 % of control
[5]
  T/C: 89 % of control
[6]
  T/C: 89 % of control

## CCOC(=O)Nc1ccc2c3c(cccc13)-c1ccccc1-2
[7]
  T/C: 90 % of control
[8]
  T/C: 97 % of control
[9]
  T/C: 91 % of control

## Cc1ccc(C)c2c1-c1ccccc1S2(=O)=O
[5]
  T/C: 110 % of control
[10]
  T/C: 111 % of control
[11]
  T/C: 109 % of control
[6]
  T/C: 102 % of control

## CCN(CC)CCCC(C)Nc1c2ccc(C)cc2nc2ccc(OC)cc12 (centres undefined)
[4]
  T/C: 103 % of control
[10]
  T/C: 112 % of control

## CC(C)c1cc(C(F)(F)F)nc(NNc2nc(C(C)C)cc(C(F)(F)F)n2)n1
[10]
  T/C: 104 % of control
[11]
  T/C: 104 % of control
[6]
  T/C: 92 % of control

## S=C(Nc1ccc(Br)cc1)SCc1ccco1
[12]
  T/C: 106 % of control
[13]
  T/C: 106 % of control
[14]
  T/C: 100 % of control
dose: 50.0 mg/kg/injection, schedule: Q01DX009 (ip), vehicle: suspension in saline
  T/C: 104 % of control
dose: 100.0 mg/kg/injection, schedule: Q01DX009 (ip), vehicle: suspension in saline
  T/C: 93 % of control
dose: 200.0 mg/kg/injection, schedule: Q01DX009 (ip), vehicle: suspension in saline
  T/C: 111 % of control

## CN(C)CC(C)(CN(C)C)C(=O)/C=C/c1ccc(Cl)c(Cl)c1
dose: 1.88 mg/kg/injection, schedule: Q01DX005 (ip), vehicle: saline with Tween-80
  T/C: 118 % of control
dose: 3.75 mg/kg/injection, schedule: Q01DX005 (ip), vehicle: saline with Tween-80
  T/C: 110 % of control
dose: 7.5 mg/kg/injection, schedule: Q01DX005 (ip), vehicle: saline with Tween-80
  T/C: 102 % of control and 110 % of control

## O=C(/C=C/c1ccccc1)n1nnc2cc(Cl)c(Cl)cc21
[4]
  T/C: 92 % of control
[5]
  T/C: 115 % of control
[10]
  T/C: 92 % of control
[11]
  T/C: 99 % of control
[6]
  T/C: 96 % of control

## O=C(O)CC1Sc2nc3c(n2C1(O)c1ccccc1)-c1ccccc1CC3 (centres undefined)
dose: 25.0 mg/kg/injection, schedule: Q01DX009 (ip), vehicle: Klucel (hydroxypropylcellulose) (HPC)
  T/C: 111 % of control
[15]
  T/C: 98 % of control
[16]
  T/C: 100 % of control

## CC1(C)Oc2ccc3ccccc3c2C(c2ccc(O)cc2)=C1c1ccccc1
[7]
  T/C: 103 % of control
[8]
  T/C: 99 % of control
[9]
  T/C: 94 % of control

## ON(C=S)c1ccccc1
[3]
  T/C: 102 % of control
[17]
  T/C: 105 % of control
[18]
  T/C: 97 % of control

## O=S1(=O)OC(c2ccc(O)c(O)c2)(c2ccc(O)c(O)c2)c2ccccc21
[19]
  T/C: 100 % of control and 98 % of control

## Cc1ccc(-n2nnc(-c3ccc(Cl)c(Cl)c3)n2)cc1
[3]
  T/C: 103 % of control
[17]
  T/C: 103 % of control
[18]
  T/C: 100 % of control

## Cc1cc(OCc2nc(N)nc(N)c2-c2ccc(Cl)c(Cl)c2)ccc1NS(=O)(=O)c1cccc(S(=O)(=O)F)c1
dose: 176.0 mg/kg/injection, schedule: Q04DX003 (ip), vehicle: saline
  T/C: 122 % of control
dose: 400.0 mg/kg/injection, schedule: Q04DX003 (ip), vehicle: saline
  T/C: 150 % of control

## Cc1ccc(S(=O)(=O)N(CCCc2ccccc2)S(=O)(=O)c2ccc(C)cc2)cc1
[15]
  T/C: 96 % of control
[16]
  T/C: 97 % of control
dose: 200.0 mg/kg/injection, schedule: Q01DX009 (ip), vehicle: Klucel (hydroxypropylcellulose) (HPC)
  T/C: 100 % of control

## CSC(=S)n1nc(C)c(N=Nc2ccc(F)cc2)c1C
dose: 100.0 mg/kg/injection, schedule: Q01DX001 (ip), vehicle: saline with Tween-80
  T/C: 92 % of control
dose: 200.0 mg/kg/injection, schedule: Q01DX001 (ip), vehicle: saline with Tween-80
  T/C: 92 % of control
dose: 400.0 mg/kg/injection, schedule: Q01DX001 (ip), vehicle: saline with Tween-80
  T/C: 97 % of control

## CN(C)NC(=O)/C=C\C(=O)O
dose: 66.0 mg/kg/injection, schedule: Q01DX009 (ip), vehicle: saline
  T/C: 105 % of control
[19]
  T/C: 100 % of control
dose: 150.0 mg/kg/injection, schedule: Q01DX009 (ip), vehicle: saline
  T/C: 100 % of control
dose: 200.0 mg/kg/injection, schedule: Q01DX009 (ip), vehicle: saline
  T/C: 91 % of control

## C/C(=N\Nc1nc2ccccc2s1)c1ccccn1
[1]
  T/C: 98 % of control
[2]
  T/C: 93 % of control
[3]
  T/C: 101 % of control and 91 % of control
[17]
  T/C: 104 % of control

## Nc1ccccc1Sc1cc(Cl)nnc1Cl
[10]
  T/C: 93 % of control
[11]
  T/C: 95 % of control
[6]
  T/C: 99 % of control

## CCSC1C(=O)N(C)C(SCC)C(=O)N1C (centres undefined)
[12]
  T/C: 103 % of control
[13]
  T/C: 109 % of control
[14]
  T/C: 100 % of control and 86 % of control

## Cc1c(Cl)ccc2c(C(O)CBr)cc(-c3ccccc3)nc12 (centres undefined)
[11]
  T/C: 103 % of control
[6]
  T/C: 109 % of control
dose: 400.0 mg/kg/injection, schedule: Q01DX009 (ip), vehicle: saline with Tween-80
  T/C: 100 % of control

## CCOC(=O)C1NC(=O)C(C(=O)OCC)NC1=O (centres undefined)
[3]
  T/C: 96 % of control
[17]
  T/C: 92 % of control
[18]
  T/C: 93 % of control

## C[C@]12CC[C@@H]3c4cc(N)c(O)cc4CC[C@H]3[C@@H]1CC[C@@H]2O
[3]
  T/C: 100 % of control
[17]
  T/C: 103 % of control
[18]
  T/C: 100 % of control

## C/C=C1\CN(C)CCC23C(=O)CC1C1COC(O)C(=O)N(c4ccccc42)C13 (centres undefined)
dose: 1.0 mg/kg/injection, schedule: Q01DX009 (ip), vehicle: Klucel (hydroxypropylcellulose) (HPC)
  T/C: 103 % of control
dose: 2.0 mg/kg/injection, schedule: Q01DX009 (ip), vehicle: Klucel (hydroxypropylcellulose) (HPC)
  T/C: 110 % of control
dose: 4.0 mg/kg/injection, schedule: Q01DX009 (ip), vehicle: Klucel (hydroxypropylcellulose) (HPC)
  T/C: 118 % of control
dose: 5.0 mg/kg/injection, schedule: Q01DX009 (ip), vehicle: saline
  T/C: 97 % of control
dose: 8.0 mg/kg/injection, schedule: Q01DX009 (ip), vehicle: Klucel (hydroxypropylcellulose) (HPC)
  T/C: 101 % of control
dose: 10.0 mg/kg/injection, schedule: Q01DX009 (ip), vehicle: saline
  T/C: 99 % of control
dose: 16.0 mg/kg/injection, schedule: Q01DX009 (ip), vehicle: Klucel (hydroxypropylcellulose) (HPC)
  T/C: 110 % of control
dose: 20.0 mg/kg/injection, schedule: Q01DX009 (ip), vehicle: saline
  T/C: 101 % of control
